From patent publication US10683559B2, “G-protein coupled receptor (GPCR)-based biosensors and uses thereof” (Georgia Tech Research Corporation, priority 2014, dated 2020) come the findings set out here.

One assay addresses T1, OR1G1 (Homo sapiens, UniProt P47890).
T1 construct: expressed in transfected cells; host or cells: S. cerevisiae W303 Δfar1, Δsst2, Δste2 (PPY140) or additionally Δste12 (PPY161), plasmid pESC-His3-PTEF1-OR1G1 (pKM269 and derivatives)
T1 sequence (P47890 with tags, fused parts or gaps limits assumed): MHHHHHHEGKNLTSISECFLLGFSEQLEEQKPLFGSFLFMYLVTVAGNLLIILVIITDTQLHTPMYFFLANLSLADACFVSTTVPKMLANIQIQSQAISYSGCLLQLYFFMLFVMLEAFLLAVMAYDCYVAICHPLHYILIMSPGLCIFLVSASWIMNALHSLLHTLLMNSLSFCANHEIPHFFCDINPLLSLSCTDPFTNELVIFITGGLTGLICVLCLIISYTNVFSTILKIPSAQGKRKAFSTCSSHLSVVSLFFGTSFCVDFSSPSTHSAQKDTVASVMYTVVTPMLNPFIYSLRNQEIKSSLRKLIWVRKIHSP
Kind of assay: OR1G1-based yeast sensor, GFP fluorescence by flow cytometry. In kind it is cell-based. The settings on record: for detection by the OR1G1-sensor, acid added independently: 250 μM, each acid alone (FIG. 27); for detection by the OR1G1-sensor in a mixture of fatty acids: mixture of C10, C14 and C16 acids (FIG. 27). An excerpt:
(§1) The GPCRs tested were the olfactory receptor OR1G1 (Sanz, G., Schlegel, C., Pernollet, J. C., and Briand, L. (2005) Comparison of odorant specificity of two human olfactory receptors from different phylogenetic classes and evidence for antagonism, Chemical Senses 30, 69-80) and the free fatty acid receptor GPR40 (Itoh, Y., et al. (2003) Free fatty acids regulate insulin secretion from pancreatic beta cells through GPR40, Nature 422, 173-176). First, OR1G1 and GPR40 sensing of even, medium-chain saturated fatty acids (C8-C16) using PFIG1-GFP(m) was tested. A reliable signal after fatty acid addition was not observed (FIGS. 23 and 24). Hypothesizing that the large standard deviation of PFIG1-GFP(m) contributed to the inability to detect medium-chain fatty acids, PFIG1-GFP(s) was tested as the reporter plasmid. Using PFIG1-GFP(s) enabled the OR1G1 based-sensor to detect C8, C10 and C12 fatty acids with 13-, 17-, and 13-fold increases in signal after activation, respectively (FIGS. 8-9). Using PFIG1-GFP(s) also enabled the GPR40 based-sensor to detect C8, C10 and C12 saturated fatty acids, with 14-, 25-, and 16-fold increases in signal after activation, respectively (FIGS. 10-11). It was also explored whether the OR1G1-based sensor signal could be improved by expressing the OR1G1 from a single-copy (s) rather than a multi-copy (m) plasmid.
(§2) To engineer a system in which medium-chain fatty acid sensing would trigger only GFP transcription, Ste12 was replaced in the yeast strain carrying deletions of Ste2, Sst2, and Far1 with one of two synthetic transcription factors (STFs): 1) STF1, which is composed of the Ste12 phosphorylation domain and the Gal4 activation and DNA binding domains (Pi, H. W., Chien, C. T., and Fields, S. (1997) Transcriptional activation upon pheromone stimulation mediated by a small domain of Saccharomyces cerevisiae Ste12p, Mol Cell Biol 17, 6410-6418) and 2) STF2, which is composed of the Ste12 phosphorylation domain, the synthetic B42 activation domain and the bacterial LexA DNA binding domain (Golemis, E. A., and Brent, R. (1992) Fused Protein Domains Inhibit DNA-Binding by Lexa, Mol Cell Biol 12, 3006-3014 and Peralta-Yahya, P., Carter, B. T., Lin, H. N., Tao, H. Y., and Comish, V. W. (2008) High-Throughput Selection for Cellulase Catalysts Using Chemical Complementation, J Am Chem Soc 130, 17446-17452). STF1 can activate transcription of GFP placed under control of a synthetic minimal promoter carrying five Gal4 DNA binding sites (PGal4(5×)). STF2 activates transcription of GFP placed under control of a synthetic minimal promoter carrying four lexA DNA binding sites (PLexA(4×)) (FIGS. 17 and 18).
(§3) For the Ste2/α-factor sensor, strains PPY638, PPY639, PPY640, PPY641 were grown overnight in synthetic complete media with 2% glucose and lacking leucine (SD glu (L^−)). The next day, the cells were used to inoculate a 20 mL of SD glu (L^−) to an OD600=0.06 and incubated for 18 hrs at 30° C. (150 r.p.m.). The cells were centrifuged, re-suspended in 5 mL SD glu (L^−), used to innoculate 5 ml of fresh SD glu (L^−) to OD600=0.6. α-factor (0-100 nM, Zymo Y1001) was added to the medium and incubated for 4 hrs at 30° C. (150 r.p.m.) before reading for cell fluorescence using a flow cytometer. For the OR1G1- and GPR40-based sensors using Ste12/PFIG1-GFP response unit, strains PPY643, PPY644 were grown overnight in SD glu and lacking histidine and leucine (SD glu (HL^−)). The next day, the cells were used to inoculate a 20 mL of SD glu (HL^−) to an OD600=0.06 and incubated for 18 hrs at […] (150 r.p.m.). The cells were centrifuged, re-suspended in 2 ml SD glu (HL^−) to OD600=0.6. C8, C10, C12, C14 and C16 saturated fatty acids (0-800 μM) were added to the medium and incubated for 4 hrs at 30° C. (150 r.p.m.) before reading for cell fluorescence using a flow cytometer. […]
(In general: Flow cytometry measures light scatter and fluorescence of single cells or particles in a stream.)

The target of another assay is T2, GPR40 (Homo sapiens, UniProt O14842).
T2 construct: expressed in transfected cells; host or cells: S. cerevisiae W303 Δfar1, Δsst2, Δste2 (PPY140) or additionally Δste12 (PPY161), plasmid pESC-His3-PTEF1-GPR40 (pKM469 and derivatives)
T2 sequence (O14842 whole entry): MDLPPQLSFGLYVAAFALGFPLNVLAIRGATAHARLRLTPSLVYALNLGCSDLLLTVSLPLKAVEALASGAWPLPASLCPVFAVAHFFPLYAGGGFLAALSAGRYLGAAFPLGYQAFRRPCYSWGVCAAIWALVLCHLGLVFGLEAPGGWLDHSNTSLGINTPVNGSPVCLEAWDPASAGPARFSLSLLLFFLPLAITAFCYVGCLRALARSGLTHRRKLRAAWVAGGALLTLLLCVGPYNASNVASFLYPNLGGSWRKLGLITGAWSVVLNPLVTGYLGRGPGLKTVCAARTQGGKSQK
The assay is described as follows: GPR40-based yeast sensor, GFP fluorescence by flow cytometry. In kind it is cell-based.
Source text: as §1, §2, §3

[1] abbreviates: Ste12/PFIG1-GFP(s), maximum at C8 800 μM, C10 250 μM, C12 500 μM.
[2] abbreviates: W303 Δfar1, Δsst2, Δste2, reporter PFig1-GFP(s), TF Ste12.
[3] abbreviates: Ste12/PFIG1-GFP(s), maximum at C8 800 μM, C10 800 μM, C12 250 μM.
[4] abbreviates: C8, C10, C12 fatty aldehydes and alcohols, C10 methyl- and ethyl-esters, dose response.
Setting [5] is: 0 or 500 μM decanoic acid, PFig1-GFP(s), compared with no GPCR.
Where [6] appears, read: STF1/PGal4(5×)-GFP response unit, 800 μM decanoic acid.
[7] abbreviates: W303 Δfar1, Δsst2, Δste2, Δste12, 500 μM decanoic acid, PFig1-GFP(s).
The mark [8] stands for this setting: W303 Δfar1, Δsst2, Δste2, Δste12, reporter PGal4(5x)-GFP(m), TF STF1.
The mark [9] stands for this setting: W303 Δfar1, Δsst2, Δste2, Δste12, reporter PLexA(4x)-GFP(m), TF STF2.

SMILES strings stand for the structures. Where only a bound is given, the exact number is not on record here.

`CCCCCCCCCCCC(=O)O` [C12 acid]: the “increase in signal after activation” value on OR1G1 (setting [1]) turned out to be 13 fold. On OR1G1 (setting [2]), this compound came in with a Dynamic range of 13, a GFP max of 233 AU and a Linear range of 1 to 250 µM. For the same compound, the “increase in signal after activation” value at GPR40 (setting [3]) is listed as 16 fold. At GPR40 (setting [2]), this compound came in with a Dynamic range of 16, a GFP max of 222 AU and a Linear range of 2 to 250 µM.
Consider `CCCCCCCC(=O)O` [C8 acid], for which, on OR1G1 (setting [1]), the “increase in signal after activation” value was found to be 13 fold. On OR1G1 (setting [2]), this compound gave a Dynamic range of 13, a GFP max of 239 AU and a Linear range of 19 to 250 µM. At GPR40 (setting [3]), the “increase in signal after activation” value was determined as 14 fold. At GPR40 (setting [2]), the Dynamic range is listed as 14, the GFP max is recorded as 197 AU and the Linear range was 36 to 250 µM.
Take `CCCCCCCCCC=O` [C10 aldehyde]: the “increase in signal after activation (specificity)” value on OR1G1 (setting [4]) is above 3 fold. The “increase in signal after activation” value at GPR40 (at 125 μM) was 3 fold.
`CCCCCCCCCCCC=O` [C12 aldehyde]: the “increase in signal after activation” value at GPR40 (at 250 μM) is 3 fold.
For the compound `CCCCCCCCCC(=O)O` [C10 acid, decanoic acid], the “GFP fluorescence in presence of GPCR” value on OR1G1 (setting [5]) and at GPR40 (setting [5]) was “increase in GFP fluorescence” throughout. At OR1G1, the “detection by the OR1G1-sensor, acid added independently” value (“detection … acid added independently” below) is given as “able to detect”. In addition, on OR1G1 (STF1/PGal4(5×)-GFP response unit), the “linear range reaching to” value worked out at 500 µM. For the same compound, the “improvement in signal after activation over the Ste12/PFIG1-GFP(s) response unit” value at OR1G1 (setting [6]) is around 200%. For the same compound, the “increase in signal after activation” value is given as 30 fold on OR1G1 (setting [6]); 7 fold on OR1G1 (STF2/PLexA(4×)-GFP response unit, 800 μM decanoic acid); 17 fold on OR1G1 (setting [1]); 28 fold at GPR40 (STF1/PGal4(5×)-GFP response unit, 500 μM decanoic acid); 25 fold at GPR40 (setting [3]). Further, at OR1G1 (Ste12/PFIG1-GFP(s) response unit), the “linear range plateaued at” value worked out at 250 µM. In addition, the “GFP fluorescence in the absence of Ste12” value on OR1G1 (setting [7]) and on GPR40 (setting [7]) was “no observable increase in GFP fluorescence” in each case. Moreover, the Dynamic range at OR1G1 (setting [8]) amounted to 30; on OR1G1 (setting [9]) it was 7; on OR1G1 (setting [2]) it was 17; on GPR40 (setting [8]), 28; at GPR40 (setting [9]) it was 4; on GPR40 (setting [2]) it was 25. In addition, the GFP max is on record as 1126 AU on OR1G1 (setting [8]); 405 AU on OR1G1 (setting [9]); 308 AU at OR1G1 (setting [2]); 573 AU on GPR40 (setting [8]); 501 AU at GPR40 (setting [9]); 339 AU at GPR40 (setting [2]). The Linear range on OR1G1 (setting [8]) was 110 to 500 µM; on OR1G1 (setting [9]), 2 to 100 µM; on OR1G1 (setting [2]), 34 to 250 µM; at GPR40 (setting [8]), 47 to 250 µM; on GPR40 (setting [9]), 4 to 100 µM; on GPR40 (setting [2]) it was 36 to 100 µM. In addition, the “increase in signal after activation with chromosomal GPA1 compared with Golf and GPA1-Golf” value at OR1G1 (above 250 μM decanoic acid) is given as “greatest increase in signal after activation”. Besides, the results for the “detection by the OR1G1-sensor in a mixture of fatty acids” value (from here on “detection … of fatty acids”) at OR1G1 and at OR1G1 (listed as decanoic acid) were “not able to detect” and “inability”, respectively. Besides, the “increase in GFP expression” value at GPR40 (STF2/PLexA(4×) response unit, 500 μM C10 acid (FIG. 22)) worked out at 4 fold. Further, the “flow cytometry histogram of the biosensor strain” value on GPR40 (incubated with compound vs no compound (FIGS. 30A-30E)) was “shift of the population”.
For the compound `CCCCCCCCCCCCCC(=O)O` [C14 acid], on OR1G1, the “detection … acid added independently” value is “able to detect” and the “detection … of fatty acids” value is given as “not able to detect”.
For the compound `CCCCCCCC=O` [C8 aldehyde], the “increase in signal after activation (specificity)” value on GPR40 (setting [4]) is reported as “unable to detect”.
As to `CCCCCCCCCCCCCCCC(=O)O` [C16 acid], at OR1G1, the “detection … acid added independently” value was “able to detect” and the “detection … of fatty acids” value is on record as “not able to detect”.
